Data: PMC11676115, “A New Heteroleptic Zn(II) Complex with Schiff Bases Sensitizes Triple-Negative Breast Cancer Cells to Doxorubicin and Paclitaxel” (Pharmaceutics, 2024)

Columns and labels:
Solubility in solvents = type: physicochemical
MDA-MB-231 (TNBC) cells = test: MTT cell viability assay, MDA-MB-231; type: cell-based, human
From the text: (§1) For in vitro assays, three tumor cell lines were used: MCF7 (ER-positive BC), maintained in Roswell Park Memorial Institute medium (RPMI-1640, Gibco®, Grand Island, NY, USA); MDA-MB-453 (HER2-positive BC), grown in Iscove’s Modified Dulbecco’s Medium (IMDM, Gibco®); and MDA-MB-231 (TNBC), grown in Leibovitz’s L-15 Medium (L15, Gibco®). Additionally, three non-tumor cell lines were used: HUVEC (human umbilical vein endothelial cells), cultured in (RPMI-1640); HFF (human fibroblast), cultured in Dulbecco’s Modified Eagle Medium: Nutrient Mixture—High Glucose (DMEM/F12-High Glucose, Gibco®); and MCF10A (human mammary epithelial cell line), also cultured in DMEM/F12 supplemented with 10 μg/mL of insulin (Gibco®), 0.25 μg/mL of hydrocortisone (Sigma-Aldrich®, Saint Louis, MO, USA), and […] of Epidermal Growth Factor (EGF) (Gibco®). All culture media were supplemented with 10% fetal bovine serum (FBS) (Gibco®) and 50 μg/mL of gentamicin (Cultilab®, Campinas, SP, Brazil). The culture flasks were kept in an incubator at 37 °C under an atmosphere of 5% CO2, except for the MDA-MB 231 lineage, which was grown without CO2 gas exchange. All cells were purchased from the American Type Culture Collection (ATCC, Manassas, VA, USA).
(§2) To analyze cell viability, the test based on the reduction of tetrazolium 3-(4,5-dimethylthiazol-2yl)-2,5-diphenyl bromide (MTT) was used. HUVEC cell lines (1.0 × 10^4 cells/well); HFF (8.0 × 10^3 cells/well); MCF10A (1.2 × 10^4 cells/well); MDA-MB-453 and MCF7 (5.0 × 10^3 cells/well) and MDA-MB-231 (1.5 × 10^4 cells/well) were seeded in 96-well plates in complete culture medium. […] All assays were performed in triplicate. Wells containing only cells and medium (untreated cells) and wells containing cells treated with DMSO diluent were used as experimental controls (considered as 100% cell viability). After incubation, MTT (5 mg/mL-diluted in phosphate-buffered saline—PBS) was added along with complete culture medium at 10% v/v and maintained for 4 h. Then, 200 μL of DMSO was added to each well and the reading was carried out at 560 nm using the Multiskan FC Microplate Photometer reader (Thermo Fisher Scientific®, Waltham, MA, USA).
(§3) The data obtained were analyzed using GraphPad Prism 8.0 software. Three independent triplicate assays were conducted and means and standard deviations were calculated. Normality was assessed using the Shapiro–Wilk test and Student’s t-test and one-way ANOVA, followed by Tukey’s post-test, were applied to compare treatments. Differences were considered significant when p < 0.05. The IC50 values were calculated by non-linear regression and the selectivity index (SI) for MDA-MB-231 cells was established by the ratio between the IC50 of each non-tumor cell line and the IC50 of MDA-MB-231. SI values ≥ 2 were considered significant.

[1] = system: MDA-MB-453 (HER2-positive BC) cells; test: MTT cell viability assay, MDA-MB-453; type: cell-based, human
Protocol: All culture media were supplemented with 10% fetal bovine serum (FBS) (Gibco®) and 50 μg/mL of gentamicin (Cultilab®, Campinas, SP, Brazil). […] All cells were purchased from the American Type Culture Collection (ATCC, Manassas, VA, USA).
as §2, with “used.” for “used. HUVEC cell lines (1.0 × 10^4 cells/well); HFF (8.0 × 10^3 cells/well); MCF10A (1.2 × 10^4 cells/well); MDA-MB-453 and MCF7 (5.0 × 10^3 cells/well) and MDA-MB-231 (1.5 × 10^4 cells/well) were seeded in 96-well plates in complete culture medium.”
as §3, with “The IC50 values were calculated by non-linear regression and the selectivity index (SI) for MDA-MB-231 cells was established by the ratio between the IC50 of each non-tumor cell line and the IC50 of MDA-MB-231.” left out

[2] = system: MCF7 (ER-positive BC) cells; test: MTT cell viability assay, MCF7; type: cell-based, human
From the text: as §1, §2, §3

HFF (human fibroblast) = test: MTT cell viability assay, HFF; type: cell-based
Protocol: (§4) For in vitro assays, three tumor cell lines were used: MCF7 (ER-positive BC), maintained in Roswell Park Memorial Institute medium (RPMI-1640, Gibco®, Grand Island, NY, USA); MDA-MB-453 (HER2-positive BC), grown in Iscove’s Modified Dulbecco’s Medium (IMDM, Gibco®); and MDA-MB-231 (TNBC), grown in Leibovitz’s L-15 Medium (L15, Gibco®). […]
(§5) To analyze cell viability, the test based on the reduction of tetrazolium 3-(4,5-dimethylthiazol-2yl)-2,5-diphenyl bromide (MTT) was used. […] Then, 200 μL of DMSO was added to each well and the reading was carried out at 560 nm using the Multiskan FC Microplate Photometer reader (Thermo Fisher Scientific®, Waltham, MA, USA).
as §3, with “Differences were considered significant when p < 0.05.” left out, “SI values ≥ 2 were considered significant.” left out

[3] = system: HUVEC (human umbilical vein endothelial cells); test: MTT cell viability assay, HUVEC; type: cell-based
Protocol: as §4, §5
as §3, with “Differences were considered significant when p < 0.05.” left out, “SI values ≥ 2 were considered significant.” left out

[4] = system: MCF10A (human mammary epithelial cell line); test: MTT cell viability assay, MCF10A; type: cell-based; design: key to SI (Non-Tumor/MDA-MB231) MCF10A: NS: nonselective; HS: highly selective
From the text: as §1, §5
as §3, with “Differences were considered significant when p < 0.05.” left out, “SI values ≥ 2 were considered significant.” left out

IC50 (MDA-MB-231 (TNBC) cells; Homo sapiens, MDA-MB-231, 48 h) [µM]	IC50 ([1]; Homo sapiens, MDA-MB-453, 48 h) [µM]	IC50 ([2]; Homo sapiens, MCF7, 48 h) [µM]	IC50 (MDA-MB-231 (TNBC) cells; 48 h) [µM]	IC50 ([1]; 48 h) [µM]	IC50 ([2]; 48 h) [µM]	SMILES	solubility in MeOH (Solubility in solvents)	cytotoxicity in words, MDA-MB-231 (MDA-MB-231 (TNBC) cells; 48 h)	cytotoxicity in words, MDA-MB-453 ([1]; 48 h)	cytotoxicity in words, MCF7 ([2]; 48 h)	concentration from which cell viability decreased, MCF7 ([2]; 48 h) [µM]	further results
0.27	< 0.01	> 156	–	–	–	CCNC(=S)N/N=C(\C)c1ccccn1 [Hatc-Et, 2-Acetylpyridine-4-ethyl-3-thiosemicarbazone]	–	most sensitive	most sensitive	most resistant	–	–
30.3	4.11	> 156	–	–	–	CC(=NNC(=O)c1ccco1)c1ccccn1 [Hhz, 2-Acetylpyridine-furanoylhidrazone]	–	–	–	–	≥ 6.25	concentration from which cytotoxicity was observed, MDA-MB-231 (MDA-MB-231 (TNBC) cells; 48 h): ≥ 1250 nM; concentration from which cell viability decreased, MDA-MB-453 ([1]; 48 h): ≥ 6.25 µM
–	–	–	> 156	< 0.01	> 156	[Cl-].[Cl-].[Zn+2] [ZnCl2, zinc chloride]	–	–	–	–	–	–

The remaining lines, values behind:

SMILES	IC50 (MDA-MB-231 (TNBC) cells; Homo sapiens, MDA-MB-231, 48 h) [µM]	IC50 ([1]; Homo sapiens, MDA-MB-453, 48 h) [µM]	IC50 ([2]; Homo sapiens, MCF7, 48 h) [µM]	IC50 (MDA-MB-231 (TNBC) cells; 48 h) [µM]	IC50 ([1]; 48 h) [µM]	IC50 ([2]; 48 h) [µM]	solubility in MeOH (Solubility in solvents)	cytotoxicity in words, MDA-MB-231 (MDA-MB-231 (TNBC) cells; 48 h)	cytotoxicity in words, MDA-MB-453 ([1]; 48 h)	cytotoxicity in words, MCF7 ([2]; 48 h)	concentration from which cell viability decreased, MCF7 ([2]; 48 h) [µM]	further results
CC(=NN=C([O][Zn+])c1ccco1)c1ccccn1.CC(=NNC(N)=O)c1ccccn1.[Cl-] [Complex 4, [Zn(Hz)(Hsc)]Cl]	–	–	–	–	–	–	pretty soluble	–	–	–	–	–
CCNC(=NN=C(C)c1ccccn1)[S][Zn][O]C(=NN=C(C)c1ccccn1)c1ccco1 [Complex 1, [Zn(Hz)(atc–Et)]]	–	–	–	0.24	0.32	9.43	–	cytotoxic	cytotoxic	proliferated after treatment with the lowest concentrations	≥ 0.25	IC50 (HFF (human fibroblast); 48 h, MTT, non-tumor cell line): 4.57 µM; SI (Non-Tumor/MDA-MB231) HFF (HFF (human fibroblast); IC50 in HFF divided by IC50 of MDA-MB-231): 19.04; IC50 ([3]; 48 h, MTT, non-tumor cell line): 2.52 µM; SI (Non-Tumor/MDA-MB231) HUVEC ([3]; IC50 in HUVEC divided by IC50 of MDA-MB-231): 10.50; sensitivity in words, MCF10A ([4]; 48 h, MTT, compared with HUVEC and HFF): most sensitive; IC50 ([4]; 48 h, MTT, non-tumor cell line): < 0.01 µM; SI (Non-Tumor/MDA-MB231) MCF10A ([4]; IC50 in MCF10A divided by IC50 of MDA-MB-231): NS
CC(=NNC(N)=O)c1ccccn1.CCNC(=NN=C(C)c1ccccn1)[S][Zn+].[Cl-] [Complex 3, [Zn(atc–Et)(Hsc)]Cl]	–	–	–	–	–	–	pretty soluble	–	–	–	–	–
